In US20100173930A1, “Certain Chemical Entities, Compositions and Methods” (priority 2006, published 2010):

What follows are compounds tested on SKM MYOFIBRIL (assay: SKM myofibril AC1.4 (ATPase, PK/LDH coupled enzyme system)). Details: screen at pCa=6.5.
Assay type: biochemical
Description: Assay components including the target protein complex, coupling enzymes and substrates, and ATP can then be added to the wells and the absorbance or fluorescence of each well of the plate can be measured with a plate reader.
In some embodiments, the method uses a 384 well plate format and a 25µL reaction volume. […] As will be appreciated by those in the art, the assay components are added in buffers and reagents. The incubation periods can be optimized to give adequate detection signals over the background. The assay can be done in real time giving the kinetics of ATP hydrolysis which increases the signal to noise ratio of the assay.
Just prior to screening, the actin, tropomyosin and troponin complex are mixed together in the desired ratio (e.g., 7:1:1) to achieve maximal calcium regulation of the actin filament. The screen is conducted at a pCa=6.5. This calcium concentration is in the physiological range during muscle contraction.
To measure the generation of ADP during the reaction, a pyruvate kinase/lactate dehydrogenase/NADH coupled enzyme system (PK/LDH) is added to the actin. The myosin is kept separately. The plates are read in real time so that kinetic curves are obtained. These compounds are in DMSO and were already spotted onto the bottoms of 384 well plates at 10 to 40 μg/ml final concentration.
Also: unit not given here.

Row | SMILES | SKM MYOFIBRIL AC1.4 (median)
1 | CCC(C)(C)Nc1c(-c2cc3ccc(C)c(C)c3nc2O)nc2ccccn12 [3-{3-[(1,1-dimethylpropyl)amino](4-hydroimidazo[1,2-a]pyridin-2-yl)}-7,8-dimethylquinolin-2-ol] | 1.5814
2 | O=C(O)c1ccc2nc(-c3ccccc3O)c(NCc3ccc(F)cc3)n2c1 [3-{[(4-fluorophenyl)methyl]amino}-2-(2-hydroxyphenyl)-4-hydroimidazo[1,2-a]pyridine-6-carboxylic acid] | 30.4725
3 | Cc1ccc(-c2nc3ccccn3c2NCc2cccc(Cl)c2)cc1 [[(3-chlorophenyl)methyl][2-(4-methylphenyl)(4-hydroimidazo[1,2-a]pyridin-3-yl)]amine] | 17.6147
4 | OCc1ccc2nc(-c3ccccc3O)c(NCc3ccc(F)cc3)n2c1 [2-(3-{[(4-fluorophenyl)methyl]amino}-6-(hydroxymethyl)-4-hydroimidazo[1,2-a]pyridin-2-yl)phenol] | 4.3564
5 | CN(C)CCNCc1ccc2nc(-c3ccccc3O)c(NCc3cccc(Cl)c3)n2c1 [2-[6-({[2-(dimethylamino)ethyl]amino}methyl)-3-{[(3-chlorophenyl)methyl]amino}-4-hydroimidazo[1,2-a]pyridin-2-yl]phenol] | 6.9925
6 | Fc1ccc(-c2nc3ccccn3c2NC2CCCCC2)cc1 [cyclohexyl[2-(4-fluorophenyl)(4-hydroimidazo[1,2-a]pyridin-3-yl)]amine] | 9.155
7 | NC(=O)c1ccc2nc(-c3ccccc3O)c(NCc3ccc(F)cc3)n2c1 [3-{[(4-fluorophenyl)methyl]amino}-2-(2-hydroxyphenyl)-4-hydroimidazo[1,2-a]pyridine-6-carboxamide] | 2.0079
8 | Cc1ccn2c(NCc3cccc(Cl)c3)c(-c3ccc(O)cc3O)nc2c1 [4-(3-{[(3-chlorophenyl)methyl]amino}-7-methyl-4-hydroimidazo[1,2-a]pyridin-2-yl)benzene-1,3-diol] | 22.1516
9 | Oc1ccc(-c2nc3ccccn3c2NC2CCCCC2)cc1 [4-[3-(cyclohexylamino)-4-hydroimidazo[1,2-a]pyridin-2-yl]phenol] | 8.513
10 | Cc1ccn2c(NCc3cccc(Cl)c3)c(-c3ccccc3O)nc2c1 [2-(3-{[(3-chlorophenyl)methyl]amino}-7-methyl-4-hydroimidazo[1,2-a]pyridin-2-yl)phenol] | 0.9522
11 | CCC(C)(C)Nc1c(-c2cc3cccc(C)c3nc2O)nc2ccccn12 [3-{3-[(1,1-dimethylpropyl)amino](4-hydroimidazo[1,2-a]pyridin-2-yl)}-8-methylquinolin-2-ol] | 2.3075
12 | CCc1ccc2nc(-c3ccc(O)cc3)c(NC3CCCCC3)n2c1 [4-[3-(cyclohexylamino)-6-ethyl-4-hydroimidazo[1,2-a]pyridin-2-yl]phenol] | 4.3136
13 | Cc1ccn2c(NCc3ccc(Cl)cc3)c(-c3ccccc3O)nc2c1 [2-(3-{[(4-chlorophenyl)methyl]amino}-7-methyl-4-hydroimidazo[1,2-a]pyridin-2-yl)phenol] | 3.3207
14 | C[C@@H](Nc1c(-c2ccc(O)cc2)nc2ccccn12)c1ccccc1 [4-{3-[((1R)-1-phenylethyl)amino]-4-hydroimidazo[1,2-a]pyridin-2-yl}phenol] | 28.0451
15 | COc1ccc(-c2nc3cc(C)ccn3c2NCc2cccc(Cl)c2)c(O)c1 [2-(3-{[(3-chlorophenyl)methyl]amino}-7-methyl(4-hydroimidazo[1,2-a]pyridin-2-yl))-5-methoxyphenol] | 27.0817
16 | CC(C)(C)CC(C)(C)Nc1c(-c2ccc(O)cc2)nc2ccccn12 [4-{3-[(1,1,3,3-tetramethylbutyl)amino]-4-hydroimidazo[1,2-a]pyridin-2-yl}phenol] | 23.4246
17 | N#Cc1ccc2nc(-c3ccccc3O)c(NCc3cccc(Cl)c3)n2c1 [3-{[(3-chlorophenyl)methyl]amino}-2-(2-hydroxyphenyl)-4-hydroimidazo[1,2-a]pyridine-6-carbonitrile] | 2.6805
18 | CN(C)C(=O)c1ccc2nc(-c3ccccc3O)c(NCc3cccc(Cl)c3)n2c1 [(3-{[(3-chlorophenyl)methyl]amino}-2-(2-hydroxyphenyl)(4-hydroimidazo[1,2-a]pyridin-6-yl))-N,N-dimethylcarboxamide] | 16.9244
19 | CNC(=O)c1ccc2nc(-c3ccccc3O)c(NCc3ccc(F)cc3)n2c1 [(3-{[(4-fluorophenyl)methyl]amino}-2-(2-hydroxyphenyl)(4-hydroimidazo[1,2-a]pyridin-6-yl))-N-methylcarboxamide] | 1.8401
20 | Oc1ccc(-c2nc3ccccn3c2NCc2ccc(Cl)cc2)cc1 [4-(3-{[(4-chlorophenyl)methyl]amino}-4-hydroimidazo[1,2-a]pyridin-2-yl)phenol] | 21.4002
21 | c1csc(-c2nc3ccccn3c2NC2CCCCC2)c1 [cyclohexyl(2-(2-thienyl)(4-hydroimidazo[1,2-a]pyridin-3-yl))amine] | 16.7359
22 | Cc1ccc2cc(-c3nc4cc(C)ccn4c3NCc3cccc(Cl)c3)c(O)nc2c1 [3-(3-{[(3-chlorophenyl)methyl]amino}-7-methyl(4-hydroimidazo[1,2-a]pyridin-2-yl))-7-methylquinolin-2-ol] | 9.2086
23 | CC(CO)c1ccn2c(NCc3cccc(Cl)c3)c(-c3ccccc3O)nc2c1 (centres unmarked) [2-(3-{[(3-chlorophenyl)methyl]amino}-7-(1-hydroxy-isopropyl)-4-hydroimidazo[1,2-a]pyridin-2-yl)phenol] | 1.2697
